From patent US20260240878A1, “PTP1B/TC-PTP DUAL INHIBITORS AND PROTEIN DEGRADERS” (Purdue Research Foundation, priority 2023, published 2026)
*1 amine or outer side, *2 acyl side, *3 side chain or, on linkers, in order; H or OH if unused. Where a SMILES comes first, the peptide text is derived from it. [ ]: non-standard residue; d: D form. The star is where a group is joined. NHCH2(1,3-C6H4)CH2CO = O=C(Cc1cccc(CN[*:1])c1)[*:2]; F2Pmp = N[C@@H](Cc1ccc(C(F)(F)P(=O)(O)O)cc1)C(=O)O; Phenylacetyl(4-OH,3-OMe) = COc1cc(CC(=O)*)ccc1O; Benzoyl(3-Br,4-Me) = Cc1ccc(C(=O)*)cc1Br; X1 = Cc1ncsc1-c1ccc([C@H](C)N*)cc1; Hyp = O=C(O)[C@@H]1C[C@@H](O)CN1; Tle = CC(C)(C)[C@H](N)C(=O)O

Assays:
[1] = target: T1, PTP1B (Homo sapiens, UniProt P18031); experiment: PTP activity assay with pNPP substrate (IC50, Ki, mode of inhibition); type: biochemical; details: pNPP 2 mM, pH 7.0, 25° C.; read-out: IC50, nM PTP1B
T1 sequence (P18031 1-435): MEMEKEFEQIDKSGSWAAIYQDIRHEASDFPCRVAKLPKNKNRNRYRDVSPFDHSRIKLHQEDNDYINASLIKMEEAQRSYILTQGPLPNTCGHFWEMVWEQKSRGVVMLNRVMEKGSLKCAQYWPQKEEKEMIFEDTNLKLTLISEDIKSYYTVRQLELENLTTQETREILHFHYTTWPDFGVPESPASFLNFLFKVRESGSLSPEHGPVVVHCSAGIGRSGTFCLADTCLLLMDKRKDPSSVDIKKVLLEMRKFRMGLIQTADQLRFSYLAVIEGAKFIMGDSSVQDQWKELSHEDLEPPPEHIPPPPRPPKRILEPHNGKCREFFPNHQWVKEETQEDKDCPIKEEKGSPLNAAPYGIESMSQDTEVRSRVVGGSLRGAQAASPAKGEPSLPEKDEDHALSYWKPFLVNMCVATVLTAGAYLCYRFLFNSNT
Outline: (§1)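 Hydrolysis of pNPP measured spectrophotometrically in pH 7.0 DMG buffer (EDTA, NaCl, DTT, BSA) at 25 °C, 0.4 nM enzyme. IC50 at 2 mM pNPP (Km) over an inhibitor titration; mode of inhibition and Ki from rates across varied pNPP and inhibitor levels, fitted to enzyme kinetic models.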

[2] = target: T2, TC-PTP (Homo sapiens, UniProt P17706); experiment: as above; type: biochemical; details: pNPP 2 mM, pH 7.0, 25° C.; read-out: IC50, nM TC-PTP
T2 sequence (P17706 1-415): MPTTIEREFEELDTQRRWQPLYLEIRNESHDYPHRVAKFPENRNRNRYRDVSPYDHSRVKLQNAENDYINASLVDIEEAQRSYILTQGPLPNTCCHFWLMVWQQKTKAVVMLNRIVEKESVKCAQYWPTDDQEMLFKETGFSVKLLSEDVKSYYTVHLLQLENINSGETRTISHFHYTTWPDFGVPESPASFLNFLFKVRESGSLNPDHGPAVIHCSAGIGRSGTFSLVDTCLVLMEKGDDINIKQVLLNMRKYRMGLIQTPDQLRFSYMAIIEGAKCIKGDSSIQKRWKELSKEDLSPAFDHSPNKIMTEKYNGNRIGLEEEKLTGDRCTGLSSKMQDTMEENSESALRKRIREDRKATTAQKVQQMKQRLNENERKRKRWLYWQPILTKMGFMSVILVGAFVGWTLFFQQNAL
Outline: as §1

[3] = test system: CD8+ naïve T-cells; experiment: Degradation, STAT phosphorylation and activation in CD8+ naive T-cells (flow cytometry); type: cell-based, mouse
Description: In (A) purified CD8^+ naïve T-cells from control (Ptpn2^fl/fl) and Lck-Cre; Ptpn2^fl/fl mice (n=3/genotype/condition) were incubated for 48 hours with IL-7 in the presence or absence of compound 47 as indicated, and TC-PTP and PTP1B protein levels were monitored by flow cytometry. (B) show vehicle-treated control, TCPTP-deficient Lck-Cre; Ptpn2^fl/fl and compound 47-treated control naïve CD8^+ T-cells were stimulated with plate-bound α-CD3/α-CD28 for 48 hours to promote T-cell activation. Basal STAT-1 (p(Y701) STAT-1) and STAT-5 (p(Y694) STAT-5) phosphorylation were assessed by flow cytometry. (C) cell size (FSC-A) and the T-cell activation markers CD25, CD69 and CD44 (MFI: mean fluorescence intensities) were measured by flow cytometry. (dot (●) represents Ptpn2^fl/fl+Vehicle, square (▪) represents Lck-Cre; Ptpn2^fl/fl+Vehicle, triangle (▴) represents Ptpn2^fl/fl+ compound 47).
Beyond attenuating JAK/STAT signaling in tumor cells, PTP1B and TC-PTP also have fundamental roles in T-cells, and the deletion of either TC-PTP or PTP1B in T-cells can markedly enhance anti-tumor immunity. TC-PTP attenuates T-cell receptor (TCR) signaling by dephosphorylating and inactivating the Src family kinase LCK. TC-PTP attenuates JAK/STAT1/5 signaling in response to cytokines such as IFNs and IL-2, which are required for the activation, clonal expansion, and differentiation of T-cells. The deletion of TC-PTP in T-cells enhances immunosurveillance and inhibits the growth of syngeneic tumors in mice and the anti-tumor efficacy of adoptively transferred T-cells. PTP1B also negatively regulates IL-2-induced JAK/STAT5 signaling in T-cells, and its deletion or inhibition in vivo can enhance the anti-tumor activity of T-cells. Accordingly, the impact of targeting PTP1B and TC-PTP with compound 47 on JAK/STAT signaling and the activation of T-cells after crosslinking the TCR was assessed. The effects of compound 47 were compared with the genetic deletion of TC-PTP (encoded by Ptpn2) in T-cells (Lck-Cre; Ptpn2^fl/fl). First, the impact of compound 47 on TC-PTP and PTP1B protein levels was assessed by flow cytometry using validated antibodies. […] The degradation of TC-PTP and PTP1B was accompanied by a more than 3-fold increase in STAT1 Y701 phosphorylation and a 2-fold increase in STAT5 Y694 phosphorylation detected after crosslinking the TCR with α-CD3/α-CD28 to activate T-cells (FIG. 9B). Importantly, the promotion of pSTAT1/Y701 and pSTAT5/Y694 by compound 47 treatment exceeded that achieved by the genetic deletion of TC-PTP, consistent with compound 47 targeting both TC-PTP and PTP1B to enhance signaling. […] CD25 (IL-2 receptor a), and CD69 (FIG. 9C). […] This was not necessarily a surprise since TC-PTP, but not PTP1B, attenuates TCR signaling in naive CD8^+ T-cells.

[4] = test system: PTP1B and TC-PTP; experiment: Immunofluorescence of PTP1B and TC-PTP in U2OS cells; type: cell-based; details: 1 μM, 3 hours and 24 hours
Description: MG132 (20 μM) was used along with compound 47 to block PTP1B and TC-PTP degradation.

[5] = after crosslinking the TCR with α-CD3/α-CD28

COc1cc(CC(=O)N[C@@H](Cc2ccccc2)C(=O)N[C@@H](Cc2ccc(C(F)(F)P(=O)(O)O)cc2)C(=O)N[C@@H](CCCCNC(=O)c2ccc(C)c(Br)c2)C(=O)NCc2cccc(CC(=O)N[C@H](C(=O)N3C[C@H](O)C[C@H]3C(=O)N[C@@H](C)c3ccc(-c4scnc4C)cc3)C(C)(C)C)c2)ccc1O [Compound 47, ((4-((S)-3-(((S)-6-(3-bromo-4-methylbenzamido)-1-((3-(2-(((S)-1-((2S,4R)-4-hydroxy-2-(((S)-1-(4-(4-methylthiazol-5-yl)phenyl)ethyl)carbamoyl)pyrrolidin-1-yl)-3,3-dimethyl-1-oxobutan-2-yl)amino)-2-oxoethyl)benzyl)amino)-1-oxohexan-2-yl)amino)-2-((S)-2-(2-(4-hydroxy-3-methoxyphenyl)acetamido)-3-phenylpropanamido)-3-oxopropyl)phenyl)difluoromethyl)phosphonic Acid] ({Phenylacetyl(4-OH,3-OMe)}-F[F2Pmp]K(Benzoyl(3-Br,4-Me))[NHCH2(1,3-C6H4)CH2CO][Tle][Hyp]-X1)
IC50 [1]: 24.2 ± 1.7 nM | IC50 [2]: 30.1 ± 2.3 nM | TCR-induced activation of T-cells (cell size, CD44, CD25, CD69) [3]: enhanced the TCR-induced activation of T-cells | TC-PTP and PTP1B protein levels in T-cells ([3]; 48 hr treatment): effectively degraded | increase in STAT1 Y701 phosphorylation [3, 5]: more than 3 fold | increase in STAT5 Y694 phosphorylation [3, 5]: 2 fold | PTP1B and TC-PTP degradation by immunofluorescence [4]: degraded cytoplasm-localized PTP1B and both nucleus- and cytoplasm-localized TC-PTP
